The results in this text go back to US8334295B2, “Pyrimidine derivatives as HIV reverse transcriptase inhibitors” (Korea Research Institute of Chemical Technology, priority 2007, dated 2012).

One series has as its system HIV-IIIb. In words: Antiviral assay in MT-2 cells. In kind it is cell-based. To be noted: Human immunodeficiency virus 1, 120 h; HIV-IIIb infected cells, 5 days, CellTiter-Glo; MT-2 or MT-4 cells not stated. The procedure: For the antiviral assay utilizing MT-2 cells, 50 μL of 2× test concentration of 5-fold serially diluted compound in culture medium with 10% FBS was added to each well of a 96-well plate (9 concentrations) in triplicate. MT-2 cells were infected with HIV-IIIb at a multiplicity of infection (m.o.i) of 0.01 for 3 hours. Fifty microliters of infected cell suspension in culture medium with 10% FBS (˜1.5×10^4 cells) was then added to each well containing […] of diluted compound. The plates were then incubated at 37° C. for 5 days. For the antiviral assay utilizing MT-4 cells, 20 μL of 2× test concentration of 5-fold serially diluted compound in culture medium with 10% FBS was added to each well of a 384-well plate (7 concentrations) in triplicate. MT-4 cells were next mixed with HIV-IIIb at an m.o.i. of 0.1 and 20 μl of virus/cell mixture (2000 cells) was immediately added to each well containing […] of diluted compound. The plates were then incubated at 37° C. for 5 days. After 5 days of incubation, 100 μL of CellTiter-Glo™ Reagent (catalog #G7571, Promega Biosciences, Inc., Madison, Wis.) was added to each well containing MT-2 cells and 40 μL to each well containing MT-4 cells. Cell lysis was carried out by incubation at room temperature for 10 min and chemiluminescence was read.

One may read the EC50 as the concentration needed to bring the measured effect to its halfway point. A low value points to higher potency in that assay. Take `C/C=C/Cn1c(C(=O)c2cc(C)cc(C)c2)c(C(C)C)c(=O)[nH]c1=O` [Compound 60]: in the series on HIV-IIIb, the EC50 was under 0.01 µM. The melting point is the temperature of the solid-liquid transition. In the case of `Cc1cc(C#N)cc(C(=O)c2c(C(C)C)c(=O)[nH]c(=O)n2C(C)C)c1` [Compound 77, 3-(3,5-Diisopropyl-2,6-dioxo-1,2,3,6-tetrahydro-pyrimidine-4-carbonyl)-5-methyl-benzonitrile], the melting point was 278 to 280 °C.

Consider `Cc1cc(C#N)cc(C(=O)c2c(C(C)C)c(=O)[nH]c(=O)n2CC2CC2)c1` [Compound 5], for which the EC50 in the series on HIV-IIIb is under 0.01 µM. `CCn1c(C(C#N)c2cc(C)cc(C#N)c2)c(C(C)C)c(=O)[nH]c1=O` (centres unmarked) [Compound 85, 3-[Cyano-(3-ethyl-5-isopropyl-2,6-dioxo-1,2,3,6-tetrahydro-pyrimidin-4-yl)-methyl]-5-methyl-benzonitrile] came in with a melting point of 260 to 261 °C. `Cc1cc(C#N)cc(C(=O)c2c(C(C)C)c(=O)[nH]c(=O)n2CCCO)c1` [Compound 25] displayed a melting point of 166 to 167 °C. The same compound came in with an EC50 with HIV-IIIb of under 0.01 µM. For `CCOCn1c(C(=O)c2cc(C)cc(C#N)c2)c(C(C)C)c(=O)[nH]c1=O` [Compound 9], the EC50 with HIV-IIIb was under 0.01 µM. For `CCOCn1c(C(F)c2cc(C)cc(C)c2)c(C(C)C)c(=O)[nH]c1=O` (centres unmarked) [Compound 57], the EC50 in the series with HIV-IIIb is under 0.01 µM. As to `CCOCn1c(C(=O)c2cc(C)cc(/C=C/C#N)c2)c(C(C)C)c(=O)[nH]c1=O` [Compound 56], the EC50 with HIV-IIIb was under 0.01 µM. `Cc1cc(C#N)cc(C(=O)c2c(C(C)C)c(=O)[nH]c(=O)n2CC2(CC(N)=O)CC2)c1` [Compound 85, 2-{1-[6-(3-Cyano-5-methyl-benzoyl)-5-isopropyl-2,4-dioxo-3,4-dihydro-2H-pyrimidin-1-ylmethyl]-cyclopropyl}-acetamide] had a melting point of 283 to 285 °C. The compound `Cc1cc(C#N)cc(C(=O)c2c(C(C)C)c(=O)[nH]c(=O)n2CC(C)C)c1` [Compound 78, 3-(3-Isobutyl-5-isopropyl-2,6-dioxo-1,2,3,6-tetrahydro-pyrimidine-4-carbonyl)-5-methyl-benzonitrile] showed a melting point of 200 to 201 °C. As for `CCCCn1c(C(=O)c2cc(C)cc(CCC#N)c2)c(C(C)C)c(=O)[nH]c1=O` [Compound 76, 3-[3-(3-Butyl-5-isopropyl-2,6-dioxo-1,2,3,6-tetrahydro-pyrimidine-4-carbonyl)-5-methyl-phenyl]-propionitrile], the melting point was in the range of 172 to 173 °C. Further, in the series with HIV-IIIb, the EC50 was under 0.01 µM.

In the series with HIV-IIIb, `CCn1c(C(=O)c2cc(C)cc(C#N)c2)c(C(C)C)c(=O)[nH]c1=O` [Compound 3, 3-(3-ethyl-5-isopropyl-2,6-dioxo-1,2,3,6-tetrahydro-pyrimidine-4-carbonyl)-5-methyl-benzonitrile] registered an EC50 of under 0.01 µM. Regarding `CCCCn1c(C(=O)c2cc(C)cc(C#N)c2)c(CC)c(=O)[nH]c1=O` [Compound 70], the melting point was 190 to 191 °C. The same compound showed an EC50 in the series on HIV-IIIb of under 0.01 µM.

On to `CCCCn1c(C(=O)c2cc(C)cc(C#N)c2)c(C(C)C)c(=O)[nH]c1=O` [Compound 47, 3-(3-Butyl-5-isopropyl-2,6-dioxo-1,2,3,6-tetrahydro-pyrimidine-4-carbonyl)-5-methyl-benzonitrile], for which, in the series on HIV-IIIb, the EC50 was under 0.01 µM.

For `CCOCn1c(C(=O)c2cc(Cl)cc(C#N)c2)c(C(C)C)c(=O)[nH]c1=O` [Compound 38], the melting point is 162 to 164 °C. Further, the EC50 in the series with HIV-IIIb is under 0.01 µM.

In turn, `CC=CCn1c(C(=O)c2cc(C)cc(C#N)c2)c(C(C)C)c(=O)[nH]c1=O` [Compound 80, 3-(3-But-2-enyl-5-isopropyl-2,6-dioxo-1,2,3,6-tetrahydro-pyrimidine-4-carbonyl)-5-methyl-benzonitrile] had a melting point of 177 to 178 °C. Moreover, in the series with HIV-IIIb, the EC50 is under 0.01 µM. `CCCn1c(C(=O)c2cc(C)cc(C#N)c2)c(C(C)C)c(=O)[nH]c1=O` [Compound 46] displayed a melting point of 202 to 203 °C. The EC50 with HIV-IIIb was under 0.01 µM. `CCOCn1c(C(=O)c2cc(C)cc(C)c2)c(C(C)C)c(=O)[nH]c1=O` [Compound 54] showed an EC50 in the series with HIV-IIIb of under 0.01 µM. Compound `CCCCn1c(C(=O)c2cc(C)cc(C=CC#N)c2)c(C(C)C)c(=O)[nH]c1=O` [Compound 74, 3-[3-(3-Butyl-5-isopropyl-2,6-dioxo-1,2,3,6-tetrahydro-pyrimidine-4-carbonyl)-5-methyl-phenyl]-acrylonitrile] gave a melting point of 164 to 165 °C. This compound also registered an EC50 in the series with HIV-IIIb of under 0.01 µM.

Take `CCn1c(C(=O)c2cc(C)cc(CCC#N)c2)c(C(C)C)c(=O)[nH]c1=O` [Compound 75, 3-[3-(3-Ethyl-5-isopropyl-2,6-dioxo-1,2,3,6-tetrahydro-pyrimidine-4-carbonyl)-5-methyl-phenyl]-propionitrile]: the melting point fell in the range of 173 to 174 °C. For the compound `C/C=C(\Cl)Cn1c(C(=O)c2cc(C)cc(C#N)c2)c(C(C)C)c(=O)[nH]c1=O` [Compound 6], the EC50 in the series with HIV-IIIb was under 0.01 µM. Regarding `CCn1c(C(=O)c2cc(C)cc(C=CC#N)c2)c(C(C)C)c(=O)[nH]c1=O` [Compound 73, 3-[3-(3-Ethyl-5-isopropyl-2,6-dioxo-1,2,3,6-tetrahydro-pyrimidine-4-carbonyl)-5-methyl-phenyl]-acrylonitrile], the melting point was 174 to 176 °C. This compound returned an EC50 with HIV-IIIb of under 0.01 µM. On to `CC=CCn1c(Oc2cc(C)cc(C)c2)c(C(C)C)c(=O)[nH]c1=O` [Compound 115, 1-But-2-enyl-6-(3,5-dimethyl-phenoxy)-5-isopropyl-1H-pyrimidine-2,4-dione], for which, in the series with HIV-IIIb, the EC50 was under 0.01 µM.

Compound `C=CCCn1c(C(=O)c2cc(C)cc(C#N)c2)c(C(C)C)c(=O)[nH]c1=O` [Compound 79, 3-(3-But-3-enyl-5-isopropyl-2,6-dioxo-1,2,3,6-tetrahydro-pyrimidine-4-carbonyl)-5-methyl-benzonitrile] showed a melting point of 133 to 134 °C.

`Cc1cc(C#N)cc(C(=O)c2c(C(C)C)c(=O)[nH]c(=O)n2CCOC(N)=O)c1` [Compound 86, Carbamic acid 2-[6-(3-cyano-5-methyl-benzoyl)-5-isopropyl-2,4-dioxo-3,4-dihydro-2H-pyrimidin-1-yl]-ethyl ester]: in the series with HIV-IIIb, the EC50 is under 0.01 µM. As for `Cc1cc(C=CC#N)cc(C(=O)c2c(C(C)C)c(=O)[nH]c(=O)n2CC2CC2)c1` [Compound 72, 3-[3-(3-Cyclopropylmethyl-5-isopropyl-2,6-dioxo-1,2,3,6-tetrahydro-pyrimidine-4-carbonyl)-5-methyl-phenyl]-acrylonitrile], the melting point was 225 to 226 °C. Further, in the series on HIV-IIIb, the EC50 is under 0.01 µM.
